Measurements from patent publication US20240000767A1, “COMBINATION OF AN ALPHA2-ADRENOCEPTOR SUBTYPE C (ALPHA-2C) ANTAGONIST WITH A TASK1/3 CHANNEL BLOCKER FOR THE TREATMENT OF SLEEP APNEA” (Bayer Aktiengesellschaft, priority 2020, published 2024).

biological target: human ADRA2C receptor (Homo sapiens (Human), UniProt P18825); test: In vitro activity assay to determine the inhibition of recombinant ADRA2C (CHO-K1 cells, aequorin bioluminescence); format: cell-based; conditions: inhibition of noradrenaline-induced bioluminescence signal; some mean values from multiple determinations; read-out: ARα2C IC50
Protocol: B-2. In Vitro Activity Assay to Determine the Inhibition of Recombinant ADRA2C
The human ADRA2C receptor belongs to the G protein(guanine-dependent protein)-coupled receptors, the main function of which is the transduction of signals into the interior of the cell.
The investigations of the inhibition of the recombinant human ADRA2C receptors were carried out with stabily transfected CHO-K1 cells coexpressing the Gaq protein and the calcium-sensitive photoprotein aequorin. In this recombinant system, binding of the agonists noradrenaline to the ADRA2C receptor leads, after activation of a signal cascade, to calcium release from intracellular stores, which is detected by the intracellular calcium sensor aequorin as a bioluminescent signal. The method is described in detail in the reference below. [Wunder F., Kalthof B., Muller T., Hueser J. Functional Cell-Based Assays in Microliter Volumes for Ultra-High Throughput Screening. Combinatorial Chemistry & High Throughput Screening, Volume 11, Number 7, 2008, pp. 495-504(10). doi.org/10.2174/138620708785204054]
The activity of the test substances was determined via their ability to inhibit the agonist-induced increase of the bioluminescence signal. The concentration which can block half of this signal increase is referred to as IC50. The IC50 value is calculated using the 4 parameter logistic function (Hill function):
Top=upper threshold, Bottom=lower threshold, Slope=slope, IC50=turning point

Chain of human ADRA2C receptor (P18825 whole entry): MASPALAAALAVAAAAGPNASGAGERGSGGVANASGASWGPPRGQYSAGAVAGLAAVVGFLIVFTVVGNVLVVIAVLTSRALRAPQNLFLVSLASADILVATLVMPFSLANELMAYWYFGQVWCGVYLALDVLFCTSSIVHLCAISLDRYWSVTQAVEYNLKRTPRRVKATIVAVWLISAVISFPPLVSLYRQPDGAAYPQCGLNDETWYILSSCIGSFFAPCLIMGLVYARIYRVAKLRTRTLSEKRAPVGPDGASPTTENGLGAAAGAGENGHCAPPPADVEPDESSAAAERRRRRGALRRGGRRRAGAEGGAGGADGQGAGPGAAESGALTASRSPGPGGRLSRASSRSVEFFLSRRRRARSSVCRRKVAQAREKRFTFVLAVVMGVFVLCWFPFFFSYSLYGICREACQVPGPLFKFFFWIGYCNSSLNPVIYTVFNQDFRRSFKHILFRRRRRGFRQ

IC50 [nM]	SMILES
41.2	O=C(NCc1ncc(F)cc1F)c1cnc(N2CCC(N3CCC[C@@H](OCC4CC(F)(F)C4)C3)CC2)s1 [Example 44, 2-{(3R)-3-[(3,3-Difluorocyclobutyl)methoxy][1,4′-bipiperidin]-1′-yl}-N-[(3,5-difluoropyridin-2-yl)methyl]-1,3-thiazole-5-carboxamide]
130	O=C(NCc1ncc(F)cc1F)c1cnc(N2CCC(N3CCCC(COCC4(C(F)(F)F)CC4)C3)CC2)s1 (racemic) [Example 62, rac-N-[(3,5-Difluoropyridin-2-yl)methyl]-2-[3-({[1-(trifluoromethyl)cyclopropyl]methoxy}methyl)[1,4′-bipiperidin]-1′-yl]-1,3-thiazole-5-carboxamide]
1060	Cc1cccnc1CNC(=O)c1cnc(N2CCC(N3CCC[C@@H](C)C3)CC2)s1 [Example 24, 2-[(3R)-3-methyl[1,4′-bipiperidin]-1′-yl]-N-[(3-methylpyridin-2-yl)methyl]-1,3-thiazole-5-carboxamide]
89	C[C@@H]1CCCN(C2CCN(c3ncc(C(=O)NCc4ncc(F)cc4Cl)s3)CC2)C1 [Example 31, N-[(3-chloro-5-fluoropyridin-2-yl)methyl]-2-[(3R)-3-methyl[1,4′-bipiperidin]-1′-yl]-1,3-thiazole-5-carboxamide]
0.65	O=C(NCc1ncc(F)cc1F)c1cnc(N2CCC(N3CCc4ccc(Cl)cc4C3)CC2)s1 [Example 139]
135	O=C(NCc1ncc(F)cc1F)c1cnc(N2CCC(N3CCC[C@@H](C(F)F)C3)CC2)s1 [Example 39, 2-[(3R)-3-(Difluoromethyl)[1,4′-bipiperidin]-1′-yl]-N-[(3,5-difluoropyridin-2-yl)methyl]-1,3-thiazole-5-carboxamide]
35	CC(C)(C)C1CCCN(C2CCN(c3ncc(C(=O)NCc4ncc(F)cc4F)s3)CC2)C1 (stereo not drawn) [Example 149]
5.5	O=C(NCc1ncc(F)cc1F)c1cnc(N2CCC(N3CCCC(COCC4CC4)C3)CC2)s1 (racemic) [Example 69, rac-2-{3-[(Cyclopropylmethoxy)methyl][1,4′-bipiperidin]-1′-yl}-N-[(3,5-difluoropyridin-2-yl)methyl]-1,3-thiazole-5-carboxamide]
4.3	CC1CCCN(C2CCN(c3ncc(C(=O)NCc4ncc(F)cc4F)s3)CC2)CC1 (single isomer, unassigned) [Example 105, ent-N-[(3,5-Difluoropyridin-2-yl)methyl]-2-[4-(4-methylazepan-1-yl)piperidin-1-yl]-1,3-thiazole-5-carboxamide]
1.3	COCCC1CCCN(C2CCN(c3ncc(C(=O)NCc4ncc(F)cc4F)s3)CC2)C1 (stereo not drawn) [Example 148]
22.2	C[C@@H]1CCCN(C2CCN(c3ncc(C(=O)NCc4cc(F)ccc4F)s3)CC2)C1 [Example 81]
243	O=C(NCc1ncc(F)cc1F)c1cnc(N2CCC(N3CCC[C@@H](CF)C3)CC2)s1 [Example 41, N-[(3,5-Difluoropyridin-2-yl)methyl]-2-[(3R)-3-(fluoromethyl)[1,4′-bipiperidin]-1′-yl]-1,3-thiazole-5-carboxamide]
107	CCc1sc(N2CCC(N3CCC[C@@H](C)C3)CC2)nc1C(=O)NCc1ncc(F)cc1F [Example 12, N-[(3,5-difluoropyridin-2-yl)methyl]-5-ethyl-2-[(3R)-3-methyl[1,4′-bipiperidin]-1′-yl]-1,3-thiazole-4-carboxamide]
65	C[C@@H]1CCCN(C2CCN(c3ncc(C(=O)NCc4ccc(F)cc4)s3)CC2)C1 [Example 84]
110	CC1CCCN(C2CCN(c3ncc(C(=O)NCc4ncc(F)cc4F)s3)CC2)CC1 (racemic) [Example 53, rac-N-[(3,5-Difluoropyridin-2-yl)methyl]-2-[4-(4-methylazepan-1-yl)piperidin-1-yl]-1,3-thiazole-5-carboxamide]
0.95	O=C(NCc1ncc(F)cc1F)c1cnc(N2CCC(N3CCCC(c4ccccc4)C3)CC2)s1 (racemic) [Example 133, rac-N-[(3,5-Difluoropyridin-2-yl)methyl]-2-(3-phenyl[1,4′-bipiperidin]-1′-yl)-1,3-thiazole-5-carboxamide]
345	O=C(NCc1ncc(F)cc1F)c1cnc(N2CCC(N3CCCC(COCC4CC(F)(F)C4)C3)CC2)s1 (racemic) [Example 75, rac-2-(3-{[(3,3-Difluorocyclobutyl)methoxy]methyl}[1,4′-bipiperidin]-1′-yl)-N-[(3,5-difluoropyridin-2-yl)methyl]-1,3-thiazole-5-carboxamide]

IC50 [nM]	SMILES
2.2	O=C(NCc1ncc(F)cc1F)c1cnc(N2CCC(N3CCCC(OCC4CC4)C3)CC2)s1 (racemic) [Example 67, rac-2-[3-(Cyclopropylmethoxy)[1,4′-bipiperidin]-1′-yl]-N-[(3,5-difluoropyridin-2-yl)methyl]-1,3-thiazole-5-carboxamide]
73.5	C[C@@H]1CCCN(C2CCN(c3ncc(C(=O)NCc4ncc(F)cc4F)s3)CC2F)C1 (mixture of isomers) [Example 50, diamix-N-[(3,5-Difluoropyridin-2-yl)methyl]-2-[(3R)-3′-fluoro-3-methyl[1,4′-bipiperidin]-1′-yl]-1,3-thiazole-5-carboxamide]
15	C[C@@H]1CCCN(C2CCN(c3ncc(C(=O)NCc4ccc(Cl)cc4)s3)CC2)C1 [Example 33, N-(4-chlorobenzyl)-2-[(3R)-3-methyl[1,4′-bipiperidin]-1′-yl]-1,3-thiazole-5-carboxamide]
56	C[C@@H]1CCCN(C2CCN(c3noc(C(=O)NCc4ncc(F)cc4F)n3)CC2)C1 [Example 49, N-[(3,5-Difluoropyridin-2-yl)methyl]-3-[(3R)-3-methyl[1,4′-bipiperidin]-1′-yl]-1,2,4-oxadiazole-5-carboxamide]
85	C[C@@H]1CCCN(C2CCN(c3ncc(C(=O)N(C)Cc4ccccc4)s3)CC2)C1 [Example 92]
1.9	O=C(NCc1ncc(F)cc1F)c1cnc(N2CCC(N3CCCC4(C3)CC4(F)F)CC2)s1 (single isomer, unassigned; ent-2) [Example 131, ent-2-[4-(1,1-Difluoro-5-azaspiro[2.5]octan-5-yl)piperidin-1-yl]-N-[(3,5-difluoropyridin-2-yl)methyl]-1,3-thiazole-5-carboxamide]
0.83	CC(C)C1CCCN(C2CCN(c3ncc(C(=O)NCc4ncc(F)cc4F)s3)CC2)C1 (racemic) [Example 103, rac-N-[(3,5-Difluoropyridin-2-yl)methyl]-2-(3-isopropyl[1,4′-bipiperidin]-1′-yl)-1,3-thiazole-5-carboxamide]
640	O=C(NCc1ncc(F)cc1F)c1cnc(N2CCC(N3CCCC(OCC(F)(F)F)C3)CC2)s1 (racemic) [Example 77, rac-N-[(3,5-Difluoropyridin-2-yl)methyl]-2-[3-(2,2,2-trifluoroethoxy)[1,4′-bipiperidin]-1′-yl]-1,3-thiazole-5-carboxamide]
2340	O=C(NCc1ncc(F)cc1F)c1cnc(N2CCC(N3CCC[C@H](C(F)F)C3)CC2)s1 [Example 38, 2-[(3S)-3-(Difluoromethyl)[1,4′-bipiperidin]-1′-yl]-N-[(3,5-difluoropyridin-2-yl)methyl]-1,3-thiazole-5-carboxamide]
800	Cc1ccc(C(C)NC(=O)c2cnc(N3CCC(N4CCC[C@@H](C)C4)CC3)s2)cc1 (stereo partly drawn) [Example 95]
26	O=C(NCc1ncc(F)cc1F)c1cnc(N2CCC(N3CCC[C@@H](C(F)(F)F)C3)CC2)s1 [Example 43, N-[(3,5-Difluoropyridin-2-yl)methyl]-2-[(3R)-3-(trifluoromethyl)[1,4′-bipiperidin]-1′-yl]-1,3-thiazole-5-carboxamide]
2.9	CCOC1CCCN(C2CCN(c3ncc(C(=O)NCc4ncc(F)cc4F)s3)CC2)C1 (single isomer, unassigned) [Example 124, ent-N-[(3,5-Difluoropyridin-2-yl)methyl]-2-(3-ethoxy[1,4′-bipiperidin]-1′-yl)-1,3-thiazole-5-carboxamide]
591	Cc1nc(N2CCC(N3CCC[C@@H](C)C3)CC2)sc1C(=O)NCc1ncc(F)cc1F [Example 8, N-[(3,5-difluoropyridin-2-yl)methyl]-4-methyl-2-[(3R)-3-methyl[1,4′-bipiperidin]-1′-yl]-1,3-thiazole-5-carboxamide]
335	O=C(NCc1ncc(F)cc1F)c1cnc(N2CCC(N3CCCC(CF)C3)CC2)s1 (racemic) [Example 6, N-[(3,5-difluoropyridin-2-yl)methyl]-2-[3-(fluoromethyl)[1,4′-bipiperidin]-1′-yl]-1,3-thiazole-5-carboxamide (racemate)]
870	C[C@@H]1CCCN(C2CCN(c3ncc(C(=O)NCc4ccncc4)s3)CC2)C1 [Example 58, 2-[(3R)-3-Methyl[1,4′-bipiperidin]-1′-yl]-N-(pyridin-4-ylmethyl)-1,3-thiazole-5-carboxamide]
2000	O=C(NCc1ncc(F)cc1F)c1cnc(N2CCC(N3CCCC(OC(F)F)C3)CC2)s1 (racemic) [Example 16, 2-[3-(Difluoromethoxy)[1,4′-bipiperidin]-1′-yl]-N-[(3,5-difluoropyridin-2-yl)methyl]-1,3-thiazole-5-carboxamide (racemate)]
